Reference: US20240415816A1, “ADJUNCTIVE D-CYCLOSERINE AUGMENTATION OF TRANSCRANIAL MAGNETIC STIMULATION (TMS) THERAPY FOR OBSESSIVE COMPULSIVE DISORDER” (MCGRX CORP., priority 2021, published 2024)
Entries after “also recorded” stand apart in the source; their conditions may differ.

Assays:
[1] = Motor cortex TMS plasticity: stimulus response curve slope after single and repeated spaced iTBS, randomized double-blind placebo-controlled crossover study; assay type: in vivo, human; details: healthy participants (n=20), +30 and +60 minutes, vs placebo condition
Experimental: Methods: A randomized double-blind placebo-controlled crossover study in healthy participants (n=20) was conducted (NCT05081986). Participants completed the study in two experimental sessions separated. In these experiments, the motor cortex was stimulated twice using TMS intermittent theta burst stimulation (iTBS) with a one-hour interval between interventions. In random order, this was done with placebo or D-cycloserine (100 mg) as adjuvant, and then the converse at least one week later. The participants' surface anatomical markers were registered to a template magnetic resonance brain image using Neuronavigation software (ANT Neuro, Germany) to permit neuronavigation and reliable targeting throughout the experiment. Transcranial magnetic stimulation involved a MagPro X100 system with Cool-B70 figure-eight coil (MagVenture, Denmark). The iTBS protocol consisted of 20 trains of bursts of 3-pulses at 50 Hz, repeated at 5 Hz with an 8 second inter-train interval at 80% RMT. Motor evoked potentials (MEPs) from the first-dorsal interosseous muscle were sampled to describe stimulus response curves using CED Signal (Cambridge, England) before and after iTBS. […] EMG data were analyzed offline using MATLAB via custom written scripts as previously described^123. […]

[2] = Wisconsin Card Sorting Task in the OCD randomized double-blind trial; assay type: in vivo, human; details: iTBS+DCS (100 mg), baseline vs after 4 weeks of treatment, compared with iTBS+Placebo and Sham-iTBS
Experimental: The efficacy of 100 mg DCS as an adjunctive strategy to iTBS to reduce OCD-related cognitive impairment and/or improve cognition in OCD was tested in a randomized double-blind 4-week study described in the Example above. Participants completed the Wisconsin Card Sorting Task at baseline and after 4 weeks of treatment. The preplanned focus was on the percent perseverative errors as an index of executive function, cognitive flexibility and cognitive control.

## N[C@@H]1CON=C1O [DCS, D-cycloserine]
[1]; DCS 100 mg as adjuvant to iTBS of motor cortex
  change in stimulus response curve (SRC) slope after first (single) iTBS: stable after a single iTBS; also recorded: the initial SRC shift at +30 minutes remains stable at +60 minutes
[1]; DCS 100 mg, second iTBS 60 minutes after the first
  change in stimulus response curve (SRC) slope after second (repeated spaced) iTBS: compound with spaced repeated iTBS; also recorded: a further shift in SRC slope in the DCS condition at +30 minutes that was sustained at +60 minutes
[2]
  percentage of perseverative errors (Wisconsin Card Sorting Task): significant reductions in the percentage of perseverative errors; also recorded: decrease in the percent perseverative errors
